Source: patent US11414384B2, “P300/CBP hat inhibitors” (Constellation Pharmaceuticals, Inc., priority 2018, dated 2022)

Molecular target: p300 HAT domain (residues 1287-1666) (Homo sapiens (Human), UniProt Q09472)
Assay: p300 HAT SPA assay (scintillation proximity assay, acetylation of biotinylated H3(1-21) peptide)
Assay type: biochemical
Conditions: P300 HAT SPA IC50, p300 HAT domain; average of at least 2 replicate titrations
Experimental: In a typical experiment the p300 HAT inhibitory activity of the compounds described herein was determined in accordance with the following experimental method.
The expressed protein was purified by Ni2+ affinity, followed by anion exchange chromatography. Appropriate fractions were pooled and buffer exchanged into 20 mM Hepes pH 7.5, 150 mM NaCl, and 1 mM TCEP.
35 μL of the reaction volume was transferred to a 384-well streptavidin FlashPlate (PerkinElmer) using a Bravo liquid handler (Velocity 11) and incubated for 1.5 hr at RT. […] Data were analyzed in Genedata to determine inhibitor IC50 values.

Sequence of p300 HAT domain (residues 1287-1666) (Q09472 1287-1666): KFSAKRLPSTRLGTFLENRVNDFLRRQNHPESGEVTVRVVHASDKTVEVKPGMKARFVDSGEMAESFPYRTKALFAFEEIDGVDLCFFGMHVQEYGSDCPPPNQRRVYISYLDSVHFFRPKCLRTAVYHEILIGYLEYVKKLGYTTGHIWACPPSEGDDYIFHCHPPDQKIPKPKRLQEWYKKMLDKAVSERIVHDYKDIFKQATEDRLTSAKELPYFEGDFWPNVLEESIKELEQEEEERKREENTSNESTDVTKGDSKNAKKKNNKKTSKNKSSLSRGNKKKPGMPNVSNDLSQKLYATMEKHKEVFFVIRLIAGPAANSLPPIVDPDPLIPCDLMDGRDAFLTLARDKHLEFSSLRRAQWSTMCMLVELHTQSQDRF

Structure (SMILES)	IC50 [µM]
CCn1cc(C(=O)C(NCCc2ccc(Cl)cc2)c2ccccc2)c2ccccc21 (single isomer, unassigned) [129 Isomer 1]	11.8

Same assay, conditions: p300 HAT domain; average of at least 2 replicate titrations; read-out: P300 HAT SPA IC50

Structure (SMILES)	IC50 [µM]
CCNC(=O)c1ccc2c(C(=O)C(NCC(C)c3ccc(C#N)cc3)c3ccccc3)cnn2c1 (single isomer, unassigned) [69 Isomer 1]	0.188
NS(=O)(=O)c1ccc(CCNC(C(=O)c2c[nH]c3cc(C(F)(F)F)ccc23)c2ccccc2)cc1 (single isomer, unassigned) [1 Isomer 1]	14.1
NS(=O)(=O)c1ccc(CCNC(C(=O)c2c[nH]c3c(Cl)c(Cl)ccc23)c2ccccc2)cc1 (single isomer, unassigned) [55 Isomer 1]	7.83
O=C(c1c[nH]c2ccccc12)C(NCCc1ccc(Cl)cc1Cl)c1ccccc1 (single isomer, unassigned) [19 Isomer 1]	> 60
COc1ccccc1CCNC(C(=O)c1c[nH]c2ccccc12)c1ccccc1 (single isomer, unassigned) [6 Isomer 1]	> 60
Cn1cc(-c2ccc3c(C(=O)C(NCCc4ccc(S(N)(=O)=O)cc4)c4ccccc4)c[nH]c3c2)cn1 (single isomer, unassigned) [66 Isomer 1]	0.96
NS(=O)(=O)c1ccc(CCNC(C(=O)c2c[nH]c3c(Cl)c(Cl)ccc23)c2ccccc2)cc1 (single isomer, unassigned) [55 Isomer 2]	> 30
CC(NCCc1ccc(Cl)cc1)C(=O)c1c[nH]c2ccccc12 (single isomer, unassigned) [23 Isomer 2]	> 60
CCNC(=O)c1ccc2c(C(=O)C(NCC(C)c3ccc(C#N)cc3)c3ccccc3)c[nH]c2c1 (single isomer, unassigned) [75 Isomer 3]	0.447

The next lines start with the values.

IC50 [µM]	Structure (SMILES)
1.9	Cc1nnc(-c2ccc3c(C(=O)C(NCCc4ccc(Cl)cc4)c4ccccc4)c[nH]c3c2)o1 (single isomer, unassigned) [107 Isomer 1]
> 5	CC(CNC(C(=O)c1c[nH]c2ccccc12)c1ccccc1)c1ccc(C(N)=O)cc1 (single isomer, unassigned) [141 Isomer 2]
1.97	O=C(c1c[nH]c2ccccc12)[C@@H](NCCc1ccc(-c2nnc[nH]2)cc1)c1ccccc1 (single isomer, unassigned) [186 Isomer 1]
0.872	CC(CNC(C(=O)c1c[nH]c2ccccc12)c1ccccc1)c1ccc(C(N)=O)cc1 (single isomer, unassigned) [141 Isomer 1]
> 5	NS(=O)(=O)c1ccc(CCNC(C(=O)c2c[nH]c3cc(-n4ccnc4)ccc23)c2ccccc2)cc1 (single isomer, unassigned) [119 Isomer 1]
> 30	Cn1cc(-c2ccc3c(C(=O)C(NCCc4ccc(F)cc4F)c4ccccc4)c[nH]c3c2)cn1 (single isomer, unassigned) [85 Isomer 1]
0.558	Cn1cc(-c2ccc3c(C(=O)C(NCCc4ccc(C#N)cc4)c4ccccc4)c[nH]c3c2)nn1 (single isomer, unassigned) [114 Isomer 1]
> 30	CNC(=O)c1cccc2c(C(=O)C(NCCc3ccc(Cl)cc3Cl)c3ccccc3)c[nH]c12 (single isomer, unassigned) [147 Isomer 1]
> 30	O=C(c1c[nH]c2cc(-c3ccccn3)ccc12)C(NCCc1ccc(F)cc1)c1ccccc1 (single isomer, unassigned) [105 Isomer 1]
2.84	CCN1CC(NC(=O)c2ccc3c(C(=O)C(NCCc4ccc(C#N)cc4)c4ccccc4)c[nH]c3c2)C1 (single isomer, unassigned) [163 Isomer 1]
0.224	N#Cc1ccc(CCNC(C(=O)c2c[nH]c3cc(N4CCCC4)ccc23)c2ccccc2)cc1 (single isomer, unassigned) [125 Isomer 2]
8.29	Cn1cc(-c2ccc3c(C(=O)C(NCCc4ccc(C(N)=O)cc4)c4ccccc4)c[nH]c3c2)cn1 (single isomer, unassigned) [139 Isomer 1]

Same assay, conditions: read-out: P300 HAT SPA IC50; p300 HAT domain; average of at least 2 replicate titrations

Structure (SMILES)	IC50 [µM]
O=C(c1cn(CC(F)(F)F)c2ccccc12)C(NCCc1ccc(Cl)cc1)c1ccccc1 (single isomer, unassigned) [130 Isomer 2]	> 60
